One assay has as its target human FLAP (Homo sapiens (Human), UniProt P20292). Kind of assay: FLAP binding assay (HTRF format). Conditions: wild type FLAP, HTRF format. Summed up: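 Samples were run in duplicate on each of two assay plates, the results were averaged, and the signal was expressed as an HTRF ratio.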
A general note: In TR-FRET formats the signal depends on donor and acceptor labels being close together.

Assay [1] relates to leukotriene pathway in human whole blood (LTB4 levels). The assay can be described thus: Human whole blood assay (A23187-stimulated LTB4). The assay is classed as cell-based. Conditions: Homo sapiens, human whole blood diluted 1:1, A23187-stimulated; read-out: LTB4 IC50 1:1. In outline:
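Heparinised human whole blood diluted 1:1 in RPMI, pre-incubated 15 min at 37° Celsius with compound, then stimulated with A23187 (7 μg/mL) for 30 min at 37° Celsius. Plasma LTB4 measured by immunoassay kit; IC50 from 4-parameter fit; single replicate per plate, at least one healthy donor.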

The structures appear in SMILES notation.

human FLAP, sequence (P20292 whole entry): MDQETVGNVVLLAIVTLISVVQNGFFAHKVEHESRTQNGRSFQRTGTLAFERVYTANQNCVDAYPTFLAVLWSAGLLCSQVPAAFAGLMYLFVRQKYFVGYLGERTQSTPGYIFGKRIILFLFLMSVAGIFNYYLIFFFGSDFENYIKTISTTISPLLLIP

Take `COc1ccccc1-c1ccc(-c2cnc(N)cn2)c(F)c1` [Example 473, 5-(3-Fluoro-2′-methoxybiphenyl-4-yl)pyrazin-2-amine]: the Ki on human FLAP was found to be 113 nM. Moreover, in assay [1], the IC50 came out at 1410 nM.

Compound `CSc1ccccc1-c1ccc(-c2cnc(N)cn2)c(F)c1` [Example 474, 5-[3-Fluoro-2′-(methylsulfanyl)biphenyl-4-yl]pyrazin-2-amine] displayed a Ki on human FLAP of 21 nM. Further, the IC50 in assay [1] worked out at 2650 nM.

Compound `Nc1cnc(-c2ccc(-c3ccccc3O)cc2F)cn1` [Example 476, 4′-(5-Aminopyrazin-2-yl)-3′-fluorobiphenyl-2-ol] had a Ki on human FLAP of 32 nM. In addition, the IC50 in assay [1] came out at 891 nM.

In turn, `Nc1cnc(-c2ccc(-c3ccccc3S(=O)(=O)c3ccccc3)cc2F)cn1` [Example 477, 5-[3-Fluoro-2′-(phenylsulfonyl)biphenyl-4-yl]pyrazin-2-amine] yielded a Ki on human FLAP of 16 nM. Besides, the IC50 in assay [1] was 738 nM.

With `Nc1cnc(-c2ccc(-c3ccccc3NS(=O)(=O)c3ccccc3)cc2F)cn1` [Example 479, N-[4′-(5-Aminopyrazin-2-yl)-3′-fluorobiphenyl-2-yl]benzenesulfonamide], the Ki at human FLAP is 6 nM. Besides, the IC50 in assay [1] came out at 571 nM.

On to `Nc1cnc(-c2ccc(-c3ccccc3OCC(F)(F)F)cc2F)cn1` [Example 484, 5-[3-Fluoro-2′-(2,2,2-trifluoroethoxy)biphenyl-4-yl]pyrazin-2-amine], for which the Ki at human FLAP turned out to be 78 nM. Also, the IC50 in assay [1] is 3460 nM.

In the case of `CC(C)Oc1ccccc1-c1ccc(-c2cnc(N)cn2)c(F)c1` [Example 487, 5-[3-Fluoro-2′-(1-methylethoxy)biphenyl-4-yl]pyrazin-2-amine], the Ki on human FLAP came to 54 nM. Also, the IC50 in assay [1] was 444 nM.

For `Nc1cnc(-c2ccc(-c3cccnc3OCC3CC3)cc2F)cn1` [Example 488, 5-{4-[2-(Cyclopropylmethoxy)pyridin-3-yl]-2-fluorophenyl}pyrazin-2-amine], the Ki at human FLAP was found to be 97 nM. Moreover, in assay [1], the IC50 is 1650 nM.

Regarding `CN(c1ccccc1-c1ccc(-c2cnc(N)cn2)c(F)c1)S(C)(=O)=O` [Example 490, N-[4′-(5-Aminopyrazin-2-yl)-3′-fluorobiphenyl-2-yl]-N-methylmethanesulfonmide], the Ki on human FLAP was found to be 354 nM. Moreover, the IC50 in assay [1] is 269 nM.

In the case of `CCS(=O)(=O)Nc1ccccc1-c1ccc(-c2cnc3[nH]ccc3n2)c(F)c1` [Example 491, N-[3′-Fluoro-4′-(5H-pyrrolo[2,3-b]pyrazin-2-yl)biphenyl-2-yl]ethanesulfonamide], the Ki at human FLAP came to 15 nM. In addition, the IC50 in assay [1] came to 215 nM.

On to `CN(c1ccccc1-c1ccc(-c2cnc3[nH]ccc3n2)c(F)c1)S(C)(=O)=O` [Example 492, N-[3′-Fluoro-4′-(5H-pyrrolo[2,3-b]pyrazin-2-yl)biphenyl-2-yl]-N-methylmethanesulfonamide], for which the affinity at human FLAP, expressed as Ki, was 15 nM. Besides, the IC50 in assay [1] amounted to 155 nM.

Regarding `CCS(=O)(=O)N(C)c1ccccc1-c1ccc(-c2cnc3[nH]ccc3n2)c(F)c1` [Example 493, N-[3′-Fluoro-4′-(5H-pyrrolo[2,3-b]pyrazin-2-yl)biphenyl-2-yl]-N-methylethanesulfonamide], at human FLAP, the affinity corresponds to a Ki of 7 nM. Further, the half-inhibitory concentration (IC50) in assay [1] was 303 nM.

Consider `CCS(=O)(=O)N(C)c1ccccc1-c1ccc(-c2cnc(N)cn2)c(F)c1` [Example 494, N-[4′-(5-Aminopyrazin-2-yl)-3′-fluorobiphenyl-2-yl]-N-methylethanesulfonamide], for which the Ki on human FLAP came to 32 nM. Moreover, in assay [1], the IC50 amounted to 99 nM.

Compound `CC(C)CS(=O)(=O)Nc1ccccc1-c1ccc(-c2cnc3[nH]ccc3n2)c(F)c1` [Example 495, N-[3′-Fluoro-4′-(5H-pyrrolo[2,3-b]pyrazin-2-yl)biphenyl-2-yl]-2-methylpropane-1-sulfonamide] registered a Ki at human FLAP of 4 nM. In addition, in assay [1], the IC50 was 509 nM.

Consider `CCN(c1ccccc1-c1ccc(-c2cnc(N)cn2)c(F)c1)S(C)(=O)=O` [Example 496, N-[4′-(5-Aminopyrazin-2-yl)-3′-fluorobiphenyl-2-yl]-N-ethylmethanesulfonamide], for which affinity at human FLAP was put at a Ki of 19 nM. For the same compound, in assay [1], the IC50 worked out at 165 nM.

In general, Ki refers to a measure of affinity in units of concentration, obtained from inhibition or displacement. Lower therefore signals higher affinity. By IC50 is commonly meant the midpoint of a concentration-inhibition curve.

(Values after patent US9079866B2, “Flap modulators” (JANSSEN PHARMACEUTICA NV, priority 2013, dated 2015).)
